Assay results taken from US20240165066A1, “LYMPH-RELEASING COMPOSITIONS OF FATTY ACIDS AND USES THEREOF FOR LYMPHATIC INCORPORATION AND SYSTEMIC DISEASE TREATMENT” (Amarin Pharmaceuticals Ireland Limited, priority 2022, published 2024).

Legend:
Format in all cases: cell-based
[1] = tested on: Human umbilical vein endothelial cells (HUVECs); assay: LC/MS proteomics of HUVECs treated with EPA or DHA and challenged with IL-6; details: for number of proteins whose expression was significantly repressed / number of proteins whose expression was significantly stimulated: compared with IL-6 alone
Procedure: Human umbilical vein endothelial cells (HUVECs) were isolated into primary cultures from female donors by Clonetics (San Diego, California) and purchased as proliferating cells. All cell culture donors were healthy, with no pregnancy or prenatal complications. The cultured cells were incubated in 95% air/5% CO2 at 37° C. and passaged by an enzymatic (trypsin) procedure. The confluent cells (4 to 5×10^5 cells/35 mm dish) were placed with minimum essential medium containing 3 mM L-arginine and 0.1 mM BH4 [(6R)-5,6,7,8-tetrahydrobiopterin]. Before experimental use, the cells (from second or third passage) were rinsed twice with Tyrode-HEPES buffer with 1.8 mM CaCl2).
EPA and DHA were purchased from Sigma-Aldrich (St. Louis, MO) and prepared initially in redistilled ethanol. Primary and secondary stock solutions were prepared and stored under nitrogen at −20° C.
HUVECs were treated with vehicle, EPA, or DHA (10 μM) for 2 hours, and then challenged with IL-6 (12 ng/mL) for 24 h hours. After incubation, cells were pelleted and frozen at −80° C. until proteomic analysis was performed.
Relative protein expression levels among the various treatments were measured using LC/MS proteomic techniques. Following protein digest, peptides are separated over a reverse phase column and then identified based on their mass.
Cell pellets were lysed using methanol/chloroform extraction. Proteins were denatured, reduced, alkylated, and trypsin digested. Samples were then prepared for Tandem Mass Tag (TMT) 10plex labeling. A bicinchoninic acid (BCA) assay was performed on each sample to quantify the total protein in each sample, which is important to confirm equal amounts of each sample are added to the multiplex sample. Each peptide in a sample was given a unique, low molecular weight (typically 126-130 Da), and then the samples were combined.
Each multiplexed sample was then fractionated to increase the overall protein coverage using high pH reversed phase fractionation and analyzed by LC/MS using a Dionex UltiMate 3000 RSLC in tandem with a Q-Exactive/Lumos Orbitrap Mass Spectrometer. The chromatography was performed using a 2-hour gradient on a Thermo Pepmap C18 column (100 Å pore size, 3.0 μm particle size, […]) set at 50° C. Mobile phase A was water with 0.1% formic acid, and mobile phase B was acetonitrile with 0.1% formic acid.
A bioinformatic package was applied to all the mass spectrometry intensity data known as Differential Enrichment analysis of Proteomics data (DEP) to process proteomic data (FIGS. 35-37).

[2] = tested on: Primary human lung microvascular endothelial cells (HMVEC-Ls, PECs); assay: LC/MS proteomics of pulmonary endothelial cells exposed to air pollution particulate matter
Procedure: Primary human lung microvascular endothelial cells (HMVEC-Ls, PECs) were purchased from Lonza (Manassas, VA). Cells were cultured in complete endothelial cell growth medium and maintained at 37° C. in a 95% air/5% CO2 humidified incubator. Cells were supplied with fresh medium every other day and propagated by an enzymatic (trypsin) procedure. Cell culture medium also contained 2% FBS to facilitate fatty acid treatment.
EPA was purchased from Sigma-Aldrich (Saint Louis, MO) and solubilized in redistilled ethanol under nitrogen atmosphere and stored at −20° C.
Urban air particulate matter and fine particulate matter were purchased from Sigma-Aldrich (SRM 1648a), catalog #: NIST1648a3110 and NIST27863110. The mean particle diameters were 5.85 and 2.8 μm, respectively.
PECs were pre-treated with EPA (40 μM) for 2 hours in 2% FBS-containing medium and then challenged with urban particulate matter (50 μg/mL) for 2 hours. After 2 hours, media was washed out and HBSS buffer was added. After incubation, cells were pelleted and frozen at −80° C. until proteomic analysis was performed. Relative protein expression levels among the various treatments were measured using LC/MS proteomic techniques (FIG. 40).
Cell pellets were lysed using methanol/chloroform extraction. Proteins were then denatured, reduced, alkylated, and trypsin digested. Samples were labeled by Tandem Mass Tag (TMT) 10plex labeling to multiplex the samples and ensure that the injection, LC, and MS conditions are identical for each sample. A bicinchoninic acid (BCA) assay was performed to quantify the total protein in each sample. Each peptide in a sample was given a unique, low molecular weight (typically 126-130 Da), and then the samples were combined.
Each multiplexed sample was then fractionated to increase the overall protein coverage using high pH reversed phase fractionation and analyzed by LC/MS using a Dionex UltiMate 3000 RSLC in tandem with a Q-Exactive/Lumos Orbitrap Mass Spectrometer.
A ComBat function was applied to all mass spectrometry intensity data to correct for batch effects. The bioinformatic package Differential Enrichment analysis of Proteomics data (DEP) was used to process proteomic data and generate the figures.

[3] = tested on: pulmonary endothelial cells; assay: IL-6 provoked-inflammation cell culture, proteomics; details: pulmonary endothelial cells provoked with IL-6
From the text: (§1) FIG. 34B presents results from a provoked-inflammation cell-culture study with proteomics outcomes, wherein endothelial cells from various tissues were exposed to the inflammatory cytokine IL-6 in the absence or presence of EPA. […] Also of interest are related increases in proteins involved in the related antioxidant ferritin in vascular endothelial cells. Finally fatty acid desaturase 1 (FADS1) encodes the Δ5-desaturase enzyme and fatty acid desaturase 2 (FADS2) encodes the […] enzyme.
(§2) In a series of tissue culture experiments cells were provoked with IL-6 to induce an inflammatory and cellular injury response, and EPA added to determine whether it moderated proteins involved in injury responses. […] Thus, the proteomics results not only affirm the ability of EPA to promote HO-1, but also confirm the ability of EPA to inhibit […], corroborating the aforementioned ability of EtEPA to suppress the Δ5-desaturase index, for example.

[4] = tested on: vascular endothelial cells; assay: as above; details: vascular endothelial cells provoked with IL-6
From the text: as §1, §2

brain endothelial cells = assay: as above; details: brain endothelial cells provoked with IL-6
From the text: as §1, §2

[5] = 10 μM for 2 hours, then IL-6 (12 ng/mL) 24 h, vs IL-6 alone

CC/C=C\C/C=C\C/C=C\C/C=C\C/C=C\C/C=C\CCC(=O)O [DHA, docosahexaenoic acid]
GSR protein change [1, 5]: 1.2-fold increase,
PRDX1 protein change [1, 5]: 1.1-fold increase,
PRDX3 protein change [1, 5]: 1.1-fold increase,
PRDX4 protein change [1, 5]: 1.5-fold increase
PRDX5 protein change [1, 5]: 1.1-fold increase,
PRDX6 protein change [1, 5]: 1.3-fold decrease
TXN protein change [1, 5]: 1.2-fold increase,
number of proteins whose expression was significantly repressed [1]: 767 proteins
number of proteins whose expression was significantly stimulated [1]: 864 proteins

CC/C=C\C/C=C\C/C=C\C/C=C\C/C=C\CCCC(=O)O [EPA, eicosapentaenoic acid]
number of proteins with significantly modulated expression ([2]; EPA (40 μM) relative to fine PMs): 205 proteins
number of proteins with significantly modulated expression ([2]; EPA (40 μM) relative to urban PMs): 347 proteins
# of Proteins Decreased Expression by Treatment, Neutrophil Degranulation Pathway (GO: 0043312) ([2]; Fine PM vs EPA + Fine PM): 11
# of Proteins Increased Expression by Treatment, Neutrophil Degranulation Pathway (GO: 0043312) ([2]; Fine PM vs EPA + Fine PM): 11
# of Proteins Decreased Expression by Treatment, Neutrophil Degranulation Pathway (GO: 0043312) ([2]; Urban PM vs EPA + Urban PM): 19
# of Proteins Increased Expression by Treatment, Neutrophil Degranulation Pathway (GO: 0043312) ([2]; Urban PM vs EPA + Urban PM): 16
number of proteins associated with neutrophil degranulation modulated by EPA treatment ([2]; compared to fine PMs): 22 proteins
number of proteins associated with neutrophil degranulation modulated by EPA treatment ([2]; compared to urban PMs): 35 proteins
HO-1 protein, EPA+IL-6 vs IL-6 alone [3]: 1.9 fold
HO-1 protein, EPA+IL-6 vs IL-6 alone [4]: 2.2 fold
HO-1 protein, EPA+IL-6 vs IL-6 alone (brain endothelial cells): 1.5 fold
DDAH-1 protein change [1, 5]: 1.1-fold increase,
DDAH-2 protein change [1, 5]: 1.1-fold increase,
GSR protein change [1, 5]: 1.1-fold increase,
PRDX1 protein change [1, 5]: 1.1-fold increase,
PRDX2 protein change [1, 5]: 1.1-fold increase,
PRDX5 protein change [1, 5]: 1.1-fold increase,
TXN protein change [1, 5]: 1.2-fold increase,
number of proteins whose expression was significantly repressed [1]: 472 proteins
number of proteins whose expression was significantly stimulated [1]: 544 proteins
